Experimental data published in patent US20230035892A1, “METHODS AND COMPOSITIONS FOR TREATING CANCER” (Flagship Pioneering Innovations V, Inc., priority 2019, published 2023).
Read-outs that look alike come from different tables or passages of the source.

Columns and labels:
Type in all cases: cell-based
[1] = test system: PAXF1657 stably overexpressing GRK2 cDNA; assay: 7-day CellTiter-Glo anti-proliferative assay; settings: PAXF1657, sgNTC, pReceiver-GRK2, 5 or 10 point dose curve; for Emax: 168 h, read-out: Maximum % Growth inhibition relative to DMSO, geometric mean; for GI50: read-out: GI50, geometric mean
Method: (§1) Cell lines were seeded into tissue culture treated, white-walled, 96-well plates at a density of 500 cells/well in RPM11640 media supplemented with 10% H.I. FBS and penicillin/streptomycin. Plates were incubated overnight at 37° C., 5% CO2 to allow cells to adhere to the wells. GRK2 small molecule antagonists were added to the cells using a ten-point or five-point dilution series with a final concentration ranging from […] in 0.1% DMSO. At the time of compound addition, a set of plates that were not treated with compounds were collected and cell viability was measured using CellTiter-Glo (Promega). CellTiter-Glo reagent was added to the plates and luminescence was measured using a Biotek Synergy plate reader. The compound treated cells were incubated for 3 days at 37° C., 5% CO2. The media was then aspirated from each well and replaced with fresh media containing GRK2 small molecule antagonists. The compound treated cells were then incubated for another 4 days at 37° C., 5% CO2 and cell viability was assessed at the end of the 7-day compound treatment by CellTiterGlo.

[2] = test system: PAXF1657 control empty vector; assay: 7-day CellTiter-Glo anti-proliferative assay; settings: for Emax: 168 h, read-out: Maximum % Growth inhibition relative to DMSO, geometric mean; for GI50: read-out: GI50, geometric mean
Method: as §1

[3] = test system: PAXF1657 stable clone of GRK2 knockout; assay: 7-day CellTiter-Glo anti-proliferative assay; settings: PAXF1657, sgGRK2 #2 clonal KO, no cDNA, 10 point dose curve; for GI50: read-out: GI50, geometric mean
Method: as §1

[4] = test system: sgGrk2-expressing PAXF1657 cells; assay: Colony formation assay in sgGrk2-expressing cells (target specificity); settings: PAXF1657, DMSO treatment; for Rel +dox: sgRNA induced (+dox)
Method: To assess the target specificity of the GRK2 small molecule antagonist of Formula III-26, sgGRK2-expressing cells were treated with the compound of Formula III-26. If GRK2 knockout is complete and the compound of Formula III-26 inhibits only GRK2, the addition of the compound of Formula III-26 should not induce any additional growth defect compared to sgRNA KO alone. […] This is potentially due to the lower GRK2 knockout efficiency that can be achieved in PAXF1657 compared to Miapaca2, as shown in Table 16.

PAXF1657 cells = assay: Growth (RFP/GFP ratio) of sgGrk2 PAXF1657 lines re-expressing Grk2 wild-type or kinase-dead cDNA; settings: for sgRNA-induced growth inhibition on re-expression of Grk2 wild-type cDNA: cleavage-resistant Grk2 wild-type cDNA
Method: (§2) Next, experiments were performed to evaluate whether GRK2 knockout induced by doxycycline treatment results in a proliferation defect in pancreatic cancer cells. Pancreatic cancer cell lines expressing GRK2 sgRNAs as well as RFP were plated in a ratio of 1:1 with GFP expressing pancreatic cancer cells. Co-plated cells were cultured in the presence or absence of 100 ng/ml doxycycline over the course of 21 days, and the percentage of GFP and RFP-expressing cells was measured over time.
(§3) To test whether the Grk2 sgRNAs act through targeting Grk2, and to test whether the anti-proliferative effect results from loss of the Grk2 kinase activity, Grk2 sgRNA expressing PAXF1657 cell lines overexpressing Cas9/sgRNA-cleavage-resistant Grk2 wild-type or kinase-dead cDNA constructs were generated. Re-expression of Cas9/sgRNA-cleavage-resistant Grk2 wild-type or kinase-dead cDNA constructs led to increased Grk2 protein levels, as measured by Western Blot analysis and shown in Table 18.

Grk2 protein [5] = assay: Western Blot of Grk2 levels in PAXF1657 lines re-expressing cleavage-resistant Grk2 wild-type or kinase-dead cDNA; settings: PAXF1657 expressing the sgRNA, cDNA Empty vector; for GRK2/GAPDH / GRK2 Adj. Vol. (Int): +dox
From the text: as §3

Grk2 protein [6] = assay: Western Blot of Grk2 levels after doxycycline-induced sgRNA expression; settings: PAXF1657, day 7, +dox
Method: To validate the findings from the CRISPR screen, Cas9-expressing pancreatic cell lines were generated that express doxycycline inducible sgRNAs targeting GRK2. Treatment of these cells with 100 ng/ml doxycycline for 3, 7 or 10 days induced a time-dependent depletion of Grk2 protein, confirming the on-target efficacy of the sgRNAs.

PAXF1657 = assay: RFP/GFP competition assay, doxycycline-induced GRK2 knockout
Method: as §2

[7] = PAXF1657, sgNTC, pReceiver-empty vector, 5 or 10 point dose curve
[8] = PAXF1657, day 3, 100 ng/ml doxycycline
[9] = PAXF1657, day 7, 100 ng/ml doxycycline
[10] = PAXF1657, day 10, 100 ng/ml doxycycline
[11] = PAXF1657, day 14, 100 ng/ml doxycycline
[12] = PAXF1657, day 17, 100 ng/ml doxycycline
[13] = PAXF1657, day 21, 100 ng/ml doxycycline

| Compound | Emax [1] [%] | GI50 [1] [µM] | Emax [2, 7] [%] | GI50 [2, 7] [µM] | other results |
| --- | --- | --- | --- | --- | --- |
| O=C(NCc1c(F)cccc1F)c1cccc(NCc2nnc3n2CCOc2cnccc2-3)c1 [Compound of Formula III-56] | 28.3 | > 10 | 46.5 | > 10 | – |
| COc1ccccc1CNC(=O)c1cccc(NCc2nnc(-c3ccncc3)[nH]2)c1 [Compound of Formula III-28] | 64.7 | 14.7 | 76.8 | 0.653 | Maximum % Growth inhibition relative to DMSO, geometric mean [3]: 78.8%; GI50 [3]: 17.9 µM |
| O=C(NCc1ccccc1)c1cccc(NCc2nnc(-c3ccncc3)[nH]2)c1 [Compound of Formula III-30] | 65.5 | 3.4 | 73.1 | 4.91 | Maximum % Growth inhibition relative to DMSO, geometric mean [3]: 63.5%; GI50 [3]: > 30 µM |
| O=C(NCc1ccccc1C(F)(F)F)c1cccc(NCc2nnc3n2CCOc2cnccc2-3)c1 [Compound of Formula III-55] | 85.9 | 0.17 | 82.3 | 0.11 | – |
| O=C(NCc1ccccc1C(F)(F)F)c1cccc(NCc2nnc(-c3ccncc3)n2CCO)c1 [Compound of Formula III-54] | 87.3 | 2.71 | 89 | 2.52 | – |
| CCCn1c(CNc2cccc(C(=O)NCc3ccccc3C(F)(F)F)c2)nnc1-c1ccncn1 [Compound of Formula III-35] | 81.4 | 0.614 | 83.6 | 0.68 | – |
| sgGrk2-3: "sgGrk2-3 (SEQ ID NO: 4)"; "doxycycline inducible sgRNAs targeting GRK2" (guide GCACCCCAGAGAGAACCAGT; expressed or natural sequence) | – | – | – | – | Difference between rel +dox and −dox signal [4]: 0.36; Rel +dox [4]: 0.64; sgRNA-induced growth inhibition on re-expression of Grk2 wild-type cDNA (PAXF1657 cells): less efficient; GRK2/GAPDH normalized to −dox (Grk2 protein [5]): −2.47; GRK2/GAPDH (Grk2 protein [5]): −0.04; GRK2 Adj. Vol. (Int) (Grk2 protein [5]): −514,147.69; GRK2/GAPDH normalized to −dox (Grk2 protein [6]): 0.28; GRK2/GAPDH ratio (Grk2 protein [6]): 0.16; GRK2 Avg. Intensity (Grk2 protein [6]): 2,026,964.66; RFP/GFP ratio +dox normalized to RFP/GFP ratio −dox (PAXF1657; [8]): 0.92; RFP/GFP ratio +dox normalized to RFP/GFP ratio −dox (PAXF1657; [9]): 0.83; RFP/GFP ratio +dox normalized to RFP/GFP ratio −dox (PAXF1657; [10]): 0.64; RFP/GFP ratio +dox normalized to RFP/GFP ratio −dox (PAXF1657; [11]): 0.44; RFP/GFP ratio +dox normalized to RFP/GFP ratio −dox (PAXF1657; [12]): 0.27; RFP/GFP ratio +dox normalized to RFP/GFP ratio −dox (PAXF1657; [13]): 0.24 |
| O=C(NCc1cc[nH]n1)c1cc([C@@H]2CCNC[C@H]2COc2ccc3c(c2)OCO3)ccc1F [Compound of Formula II-26] | 25.5 | > 10 | 43.3 | – | GI50 [2]: 1.49 µM |
| Cn1c(CNc2cccc(C(=O)NCc3c(F)cccc3F)c2)nnc1-c1ccncn1 [Compound of Formula III-31] | 29.8 | > 10 | 31.6 | > 10 | – |
| Fc1ccc([C@@H]2CCNC[C@H]2COc2ccc3[nH]ncc3c2)cc1CNCc1ccn[nH]1 [Compound of Formula II-33] | 0 | > 10 | 42.7 | 6.27 | – |
| sgGrk2-2: "sgGrk2-2 (SEQ ID NO: 3)"; "doxycycline inducible sgRNAs targeting GRK2" (guide GGTCCCGGTAGACCACGAAG; expressed or natural sequence) | – | – | – | – | Difference between rel +dox and −dox signal [4]: 0.21; Rel +dox [4]: 0.79; sgRNA-induced growth inhibition on re-expression of Grk2 kinase-dead cDNA (PAXF1657 cells; cleavage-resistant Grk2 kinase-dead cDNA): did not; sgRNA-induced growth inhibition on re-expression of Grk2 wild-type cDNA (PAXF1657 cells): reduced the sgRNA-induced growth inhibition; GRK2/GAPDH normalized to −dox (Grk2 protein [5]): −0.24; GRK2/GAPDH (Grk2 protein [5]): −0.01; GRK2 Adj. Vol. (Int) (Grk2 protein [5]): −189,385.63; GRK2/GAPDH normalized to −dox (Grk2 protein [6]): 0.20; GRK2/GAPDH ratio (Grk2 protein [6]): 0.06; GRK2 Avg. Intensity (Grk2 protein [6]): 2,133,921.03; RFP/GFP ratio +dox normalized to RFP/GFP ratio −dox (PAXF1657; [8]): 1.00; RFP/GFP ratio +dox normalized to RFP/GFP ratio −dox (PAXF1657; [9]): 0.89; RFP/GFP ratio +dox normalized to RFP/GFP ratio −dox (PAXF1657; [10]): 0.76; RFP/GFP ratio +dox normalized to RFP/GFP ratio −dox (PAXF1657; [11]): 0.69; RFP/GFP ratio +dox normalized to RFP/GFP ratio −dox (PAXF1657; [12]): 0.57; RFP/GFP ratio +dox normalized to RFP/GFP ratio −dox (PAXF1657; [13]): 0.44 |
| O=C(NCc1[nH]nc2ccccc12)c1cc([C@@H]2CCNC[C@H]2COc2ccc3c(c2)OCO3)ccc1F [Compound of Formula II-35] | – | – | – | 3.37 | – |
